Reference: patent US5847107A, “Method of preparing mixed glucosamine salts” (Rotta Research B.V. Amsterdam (Swiss Branch), priority 1996, dated 1998)

Legend:
[1] = Stability at 25° C. and 60% R.H. (appearance, titre); format: physicochemical
[2] = Solubility (25° C. - w/v); format: physicochemical; details: for Solubility in acetone, acetonitrile, tetrahydrofuran, dioxane: practically insoluble; for Solubility in methanol: slightly soluble; for Solubility in ethanol: very slightly soluble; for Solubility in water: very soluble
[3] = pH of a saturated aqueous solution at 20° C.; format: physicochemical
[4] = Partition coefficient in phosphate buffer (pH 6.8)/n-octanol at 25° C.; format: physicochemical
[5] = Stability at 40° C. and 85% R.H. (appearance, titre); format: physicochemical
[6] = cited from earlier work
[7] = 0 months, (*): Crystalline powder of pale cream colour
[8] = 18 months (after slight yellowing at 12 months)
[9] = 24 months (after slight yellowing at 12 months)

Structure (SMILES)	Titre ([1]; 0 months) [%]	Appearance [1, 7]	Appearance ([1]; 3 months)	Titre ([1]; 3 months, 131400 min) [%]	Appearance ([1]; 6 months)	Titre ([1]; 6 months, 262800 min) [%]	Appearance ([1]; 9 months)	Titre ([1]; 9 months, 394200 min) [%]	Appearance ([1]; 12 months)	Titre ([1]; 12 months, 525600 min) [%]	Solubility in benzene, chloroform, carbon tetrachloride, methylene chloride, ligroin, ethyl ether [2]	Solubility in acetone, acetonitrile, tetrahydrofuran, dioxane [2]	Solubility in methanol [2]	Solubility in ethanol [2]	Solubility in water [2]	pH of a saturated aqueous solution [3]	Partition coefficient [4]	Titre ([5]; 0 months) [%]	Appearance [5, 7]	Appearance ([5]; 3 months)	other results
Cl.N[C@H]1C(O)O[C@H](CO)[C@@H](O)[C@@H]1O.O=S(=O)([O-])[O-].[K+].[K+] (some centres unmarked) [Example 6]	100.1	conforms	unchanged	100.3	unchanged	99.8	unchanged	99.6	unchanged	100.3	Insoluble	< 0.01 % (w/v)	about 1 % (w/v)	about 0.03 % (w/v)	about 40 % (w/v)	3 +/-0.2	practically infinite	100.1	conforms	unchanged	Titre ([5]; 3 months, 129600 min): 100.3%; Appearance ([5]; 6 months): unchanged; Titre ([5]; 6 months, 259200 min): 99.8%; Appearance ([5]; 9 months): unchanged; Titre ([5]; 9 months, 388800 min): 100.0%; Titre ([5]; 12 months, 518400 min): 95.7%; Appearance [5, 8]: unchanged; Titre ([5]; 18 months, 777600 min): 96.2%; Appearance [5, 9]: unchanged; Titre ([5]; 24 months, 1.0368e+06 min): 95.5%
Cl.N[C@H]1C(O)O[C@H](CO)[C@@H](O)[C@@H]1O.O=S(=O)([O-])[O-].[Mg+2] (some centres unmarked) [Example 8]	100.5	conforms	unchanged	100.1	unchanged	99.8	unchanged	100.3	unchanged	100.6	Insoluble	< 0.01 % (w/v)	about 1 % (w/v)	about 0.03 % (w/v)	about 40 % (w/v)	3 +/-0.2	practically infinite	100.5	conforms	unchanged	Titre ([5]; 3 months, 129600 min): 100.6%; Appearance ([5]; 6 months): unchanged; Titre ([5]; 6 months, 259200 min): 100.1%; Appearance ([5]; 9 months): unchanged; Titre ([5]; 9 months, 388800 min): 100.2%; Titre ([5]; 12 months, 518400 min): 97.4%; Appearance [5, 8]: unchanged; Titre ([5]; 18 months, 777600 min): 97.7%; Appearance [5, 9]: unchanged; Titre ([5]; 24 months, 1.0368e+06 min): 97.3%
Cl.N[C@H]1C(O)O[C@H](CO)[C@@H](O)[C@@H]1O (some centres unmarked) [glucosamine hydrochloride, reference compound]	–	–	–	–	–	–	–	–	–	–	–	–	–	–	–	–	–	–	–	–	Stability on storage ([6]; no particular precautions in time, temperature or humidity): stable
N[C@H]1C(O)O[C@H](CO)[C@@H](O)[C@@H]1O.O=S(=O)(O)O (some centres unmarked) [glucosamine sulphate, reference compound]	–	–	–	–	–	–	–	–	–	–	–	–	–	–	–	–	–	–	–	–	Hygroscopicity ([6]; background statement): highly hygroscopic
